Values of other authors as cited in patent US6620844B2, “Method for reducing blood insulin levels by reducing in vivo cathepsin L activity” (NewMillennium Pharmaceutical, Inc., priority 2001, dated 2003).

How the values were obtained:
Cathepsin S = Cathepsin S (Homo sapiens, UniProt P25774); conditions: cited from earlier work
Cathepsin B = Cathepsin B (Homo sapiens, UniProt P07858); conditions: cited from earlier work
Cathepsin L = Cathepsin L (Homo sapiens, UniProt P07711); conditions: cited from earlier work
Cathepsin K = target: T1, Cathepsin K (Homo sapiens, UniProt P43235); conditions: cited from earlier work
T1 sequence (P43235 115-329): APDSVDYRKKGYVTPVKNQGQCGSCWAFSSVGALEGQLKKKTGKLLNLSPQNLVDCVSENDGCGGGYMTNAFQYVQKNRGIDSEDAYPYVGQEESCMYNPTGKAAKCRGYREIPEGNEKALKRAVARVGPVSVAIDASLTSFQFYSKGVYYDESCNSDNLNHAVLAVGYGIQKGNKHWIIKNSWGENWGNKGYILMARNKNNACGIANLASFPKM

Cathepsin C = Cathepsin C (Homo sapiens, UniProt P53634); conditions: at 1 × 10^−6 M; cited from earlier work
Cathepsin C, sequence (P53634 25-463, species assumed): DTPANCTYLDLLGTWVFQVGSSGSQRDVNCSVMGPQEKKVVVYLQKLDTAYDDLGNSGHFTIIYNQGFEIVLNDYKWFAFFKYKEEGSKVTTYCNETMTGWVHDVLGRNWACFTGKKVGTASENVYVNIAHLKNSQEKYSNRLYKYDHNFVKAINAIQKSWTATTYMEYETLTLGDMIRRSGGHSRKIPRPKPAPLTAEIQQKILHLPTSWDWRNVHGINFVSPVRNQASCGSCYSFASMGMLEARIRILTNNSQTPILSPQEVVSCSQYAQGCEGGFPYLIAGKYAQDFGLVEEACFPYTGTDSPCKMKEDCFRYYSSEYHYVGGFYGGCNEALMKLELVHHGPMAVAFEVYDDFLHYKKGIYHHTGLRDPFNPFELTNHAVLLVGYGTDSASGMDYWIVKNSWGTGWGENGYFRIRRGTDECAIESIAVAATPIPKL

Cathepsin L, sequence (P07711 114-333, species assumed): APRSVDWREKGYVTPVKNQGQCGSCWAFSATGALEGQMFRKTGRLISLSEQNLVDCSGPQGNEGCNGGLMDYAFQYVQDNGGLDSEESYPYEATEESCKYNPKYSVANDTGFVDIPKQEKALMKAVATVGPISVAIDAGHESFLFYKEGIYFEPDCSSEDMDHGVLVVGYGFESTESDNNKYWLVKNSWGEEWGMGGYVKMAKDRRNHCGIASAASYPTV
Cathepsin S, sequence (P25774 115-331, species assumed): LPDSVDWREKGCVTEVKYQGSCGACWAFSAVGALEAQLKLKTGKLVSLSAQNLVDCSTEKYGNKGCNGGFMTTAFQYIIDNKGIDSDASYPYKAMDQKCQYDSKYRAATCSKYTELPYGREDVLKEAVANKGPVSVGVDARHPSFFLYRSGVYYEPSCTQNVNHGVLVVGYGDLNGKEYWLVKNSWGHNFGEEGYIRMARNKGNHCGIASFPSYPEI

For `CC(C)CC(NC(=O)[C@@H](Cc1ccccc1)NC(=O)OCc1ccccc1)C(=O)C=O` (stereo partly shown), the Ki (Cathepsin S) is listed as 0.185 nM and the Ki (Cathepsin B) is listed as 0.76 nM.
For `CC(C)C[C@H](NC(=O)N1CCOCC1)C(=O)N[C@H](/C=C/S(=O)(=O)c1ccccc1)CCc1ccccc1`, the Ki (Cathepsin S) is given as 5 nM.
In the case of `N#CN1CCC(NC(=O)Cc2ccccc2)C1` (stereo not shown), the IC50 (Cathepsin B) is listed as 200 nM, the IC50 (Cathepsin L) is listed as 54 nM and the IC50 (Cathepsin K) is listed as 40 nM.
For `N#CN1CC(NC(=O)CC2CCCCC2)C1`, the IC50 (Cathepsin B) is listed as 150 nM, the IC50 (Cathepsin L) is listed as 6 nM and the IC50 (Cathepsin K) is listed as 5 nM.
For `CC(C)C[C@H](NC(=O)[C@H](CC(C)C)NC(=O)OCc1ccccc1)C(=O)COCc1ccc(-c2ccccc2)cc1`, the Ki (Cathepsin B) is listed as 1310 nM, the Ki (Cathepsin L) is listed as 63 nM and the Ki (Cathepsin K) is listed as 22 nM.
For `CN(C)C(=O)[C@H](Cc1ccccc1)NC(=O)C1O[C@@H]1C(=O)NCCc1ccccn1` (stereo partly shown), the “% of Inhibition, Cathepsin S” value (Cathepsin S; at 1 × 10^−6 M) is given as 30%, the “% of Inhibition, Cathepsin B” value (Cathepsin B; at 1 × 10^−6 M) is given as 0% and the “% of Inhibition, Cathepsin L” value (Cathepsin L; at 1 × 10^−6 M) is given as 100%. The “% of Inhibition, Cathepsin K” value (Cathepsin K; at 1 × 10^−6 M) was 0% and the “% of Inhibition, Cathepsin C” value (Cathepsin C) was 0%.
For `O=C[C@H](Cc1c[nH]c2ccccc12)NC(=O)C(Cc1ccccc1)Cc1ccccc1`, the IC50 (Cathepsin B) is listed as over 1000 nM and the IC50 (Cathepsin L) is listed as under 32 nM.
